Patent publication US12569500B2, “Combination comprising tricycle compound and use thereof in preparation of medicament for treating HBV” (FUJIAN AKEYLINK BIOTECHNOLOGY CO., LTD., priority 2020, dated 2026)

How the values were obtained:
HBV = assay: AAV/HBV mouse model, anti-hepatitis B virus efficacy in vivo (serum/liver HBV DNA, serum HBV RNA); design: species or system C57BL/6 mice
Experimental: 5-week-old male C57BL/6 mice without specific pathogen level, purchased from Shanghai Slack Laboratory Animal Co., Ltd.
Compound 1 was added with an appropriate amount of the above-mentioned solvent, and a uniform particle suspension was obtained after vortexing, and the preparation concentration was 1.0, 3.0 and 10.0 mg/mL. Store at 4° C. until used. Compound 1 is calculated according to the salt coefficient of 1.0 and the purity of 100%.
Tenofovir disoproxil (TDF) was purchased from Shanghai Panhong Chemical Technology Co., Ltd. Weigh an appropriate amount of TDF and dissolve it in physiological saline to prepare a 1 mg/mL mother liquor, vortex until TDF is fully dissolved, dispense into 1 mL size and store at −20° C. Take 1 mL of mother liquor before each administration, and dilute the working solution 10 times to 0.1 mg/mL with normal saline for the day's administration.
rAAV8-1.3HBV (Type D, ayw) was purchased from Beijing Wujiahe Institute of Molecular Medicine, batch number x2018032301, 1×10^12 viral genome (v.g.)/mL. Dilute with sterile PBS to 5×10^11 v.g./mL before the experiment. Each mouse was injected with 200 μL, that is, each mouse was injected with 1×10^11 v.g.
AAV/HBV injection: rAAV8-1.3HBV is pre-prepared with sterile PBS to a concentration of 1×10^11 v.g./200 μL solution before injection.
Infection level detection: On days 14 and 21 after virus injection, about 120 μL of blood was collected from the submandibular vein for all infected mice to collect serum. After the whole blood was incubated in a 37° C. incubator for 30 minutes, the blood was centrifuged at 13,200×g for 3 minutes at 4° C. to collect about 30 μL of serum. The serum is stored at −80° C. for the detection of HBV DNA, HBeAg and HBsAg.
Grouping: On the 28th day after virus injection, according to the levels of HBV DNA, HBsAg and HBeAg in serum samples on the 14th and 21st days after virus injection, and the body weight of the mice.
Definition of experimental days: the day of the first dosing is set to day 0 of the experiment.
Serum sample preparation: After the blood sample was incubated at 37° C. for about 30 minutes, centrifuged at 4° C., 13,200 g for 3 minutes, and the separated supernatant was quickly frozen in dry ice.
Blood was collected from the heart to collect serum for HBV DNA detection and detection of HBV RNA levels in groups 1 and 4.
3. Quantitative PCR detection of HBV DNA content in mouse serum and liver:
Data analysis: The data is expressed as the average value standard error of each group of samples. Unless otherwise specified, groups 1-6: n=8. Use Student's t test for statistical analysis.

HBsAg = assay: Single agent anti-HBV activity, HBsAg in supernatant by ELISA, HepG2.2.15 cells; type: cell-based; details: Hepatitis B virus, HepG2.2.15, 192 h, read-out: HBsAg EC50
Experimental: (§1) Cell line: HepG2.2.15 cells are constructed and provided by WuXi AppTec. The cell culture medium is DMEM/F12 medium supplemented with 2% fetal bovine serum, 2 mM glutamine, 1×non-essential amino acids, 100 U/mL penicillin and 100 µg/mL streptomycin.
2.1.1 On the first day, HepG2.2.15 cells were seeded into a 96-well cell culture plate at a density of 60,000 cells/well, and then the cells were cultured overnight at 5% CO2 and 37° C. On the second day, the compound 1 and the compound of formula (IIb) and the compound of formula (IIIb) were diluted and added to a 96-well plate. Each combination was a three-fold plate. The cells were cultured under 5% CO2 and 37° C. for 3 days. On the 5th day, a new culture medium containing the compound was replaced, and the supernatant was collected on the 8th day. The HBsAg in the supernatant was detected by ELISA, and the DNA in the supernatant was extracted at the same time, and the content of HBV DNA in the supernatant was detected by quantitative PCR. After collecting the cell supernatant, add CellTiter-Glo to detect cell viability.

HepG2.2.15 cells = assay: Cytotoxicity of the compounds in combination, CellTiter Glo; type: cell-based
Experimental: as §1
2.2.1 On the first day, HepG2.2.15 cells were seeded into a 96-well cell culture plate at a density of 60,000 cells/well, and then the cells were cultured overnight at 5% CO2 and 37° C. On the second day, different concentrations of compounds were added to treat the cells. Compounds were diluted in gradients, 7×7 concentration combinations, and 3 replicate plates were tested in parallel. The compound concentration tested for joint activity is based on the EC50 value of each compound. The 7 concentration gradients are approximately: 2×, 1×, ½×, ¼×, ⅛×, 1/16× and 1/32×EC50. The compound concentration of the combined activity test experiment is shown in Table 8, and the combination drug arrangement is shown in Table 9. On the 5th day, replace the fresh culture medium containing the compound. On the 8th day, the culture supernatant was collected, DNA was extracted, and the content of HBV DNA was detected by quantitative PCR. At the same time, CellTiter Glo reagent was used to detect cell viability and MacSynergy software was used to analyze the combined effect of the two drugs.

[1] = 100 mpk BID, after 28 days of dosage, vs solvent group

With Cc1cc2n(c1)S(=O)(=O)c1ccc(C(=O)NCC[C@H]3COCCO3)cc1NC2=O [Compound 1] the “serum HBV DNA content” value (HBV; 10 mpk BID (Group 2), after 7 days of dosage) was “remained stable after 7 days of dosage”, the “HBV DNA content in the liver” value (HBV; 10 mpk BID, after 28 days of dosage, vs solvent group) was “decreased” and the “serum HBV DNA content” value (HBV; 30 mpk BID, after 7 days of dosage) was “remained stable after 7 days of dosage”. The “HBV DNA content in the liver” value (HBV; 30 mpk BID, after 28 days of dosage, vs solvent group) was “decreased”, the “serum HBV DNA content” value (HBV; 100 mpk BID, 7-28 days after dosage, vs solvent group, p<0.01) was “significantly lower than that in the solvent group” and the “HBV DNA content in the liver” value (HBV; [1]) was “decreased”. For the same compound, the “HBV RNA content in the serum” value (HBV; [1]) was “decreased”, the “mouse serum and liver HBV DNA” value (HBV; compared with the solvent control group) was “significantly reduced” and the “serum HBV DNA content, trend over doses” value (HBV; low (10 mpk), medium (30 mpk), high (100 mpk) dose groups BID vs solvent group, after 3 days of dosage) was “dose-dependent trend”. For the same compound, the EC50 (HBsAg) was > 1000 nM, the “average cell viability percentage” value (HepG2.2.15 cells; Compound 1 0.1875 nM + formula (IIIb) 0 nM) was 110.07% and the “average cell viability percentage” value (HepG2.2.15 cells; Compound 1 0.1875 nM + formula (IIb) 0 nM) was 109.29%. The “average cell viability percentage” value (HepG2.2.15 cells; Compound 1 0.375 nM + formula (IIIb) 0 nM) was 112.42%, the “average cell viability percentage” value (HepG2.2.15 cells; Compound 1 0.375 nM + formula (IIb) 0 nM) was 109.88% and the “average cell viability percentage” value (HepG2.2.15 cells; Compound 1 0.75 nM + formula (IIIb) 0 nM) was 111.36%. The “average cell viability percentage” value (HepG2.2.15 cells; Compound 1 0.75 nM + formula (IIb) 0 nM) was 106.91%, the “average cell viability percentage” value (HepG2.2.15 cells; Compound 1 1.5 nM + formula (IIIb) 0 nM) was 111.96% and the “average cell viability percentage” value (HepG2.2.15 cells; Compound 1 1.5 nM + formula (IIb) 0 nM) was 105.37%. For the same compound, the “average cell viability percentage” value (HepG2.2.15 cells; Compound 1 3 nM + formula (IIIb) 0 nM) was 112.58%, the “average cell viability percentage” value (HepG2.2.15 cells; Compound 1 3 nM + formula (IIb) 0 nM) was 104.39% and the “average cell viability percentage” value (HepG2.2.15 cells; Compound 1 6 nM + formula (IIIb) 0 nM) was 112.45%. For the same compound, the “average cell viability percentage” value (HepG2.2.15 cells; Compound 1 6 nM + formula (IIb) 0 nM) was 103.50%, the “average cell viability percentage” value (HepG2.2.15 cells; Compound 1 12 nM + formula (IIIb) 0 nM) was 111.17% and the “average cell viability percentage” value (HepG2.2.15 cells; Compound 1 12 nM + formula (IIb) 0 nM) was 102.08%.
